{
  "source": "patent US20150299670A1",
  "about": "“COMBINING GENETIC TRAITS FOR FURFURAL TOLERANCE” (priority 2012, published 2015)",
  "key": {"XW136": {"system": "XW136", "assay": "Furfural tolerance in tube cultures", "format": "cell-based, Escherichia coli", "settings": "strain XW136 (XW120 with adhE::fucO), AM1 medium, 50 g/L xylose, 48 h", "method": "(§1) Furfural toxicity was measured in tube cultures (13 mm by 100 mm) as previously described for ethanol strains (17, 22). For succinate strains, tubes contained 4 ml of AM1 medium with 50 g/L xylose, 50 mM KHCO3, and 100 mM MOPS as a buffer. Tubes were inoculated with starting cell density of 44 mg/L. Cell mass was measured at 550 nm after incubation for 48 h (37° C.)."}, "XW055": {"system": "XW055", "assay": "Furfural tolerance in tube cultures", "format": "cell-based", "settings": "Escherichia coli, strain XW055, AM1 medium, 50 g/L xylose, 48 h, read-out: minimal inhibitory concentration of furfural", "method": "as §1"}, "XW120": {"system": "XW120", "assay": "Furfural tolerance in tube cultures", "format": "cell-based", "settings": "Escherichia coli, 48 h, read-out: minimal inhibitory concentration of furfural", "method": "as §1"}, "LY180": {"system": "LY180", "assay": "Batch ethanol fermentation in AM1 medium with furfural", "format": "cell-based, Escherichia coli", "settings": "15 mM furfural, AM1 mineral salts medium, 100 g/L xylose", "method": "(§2) FIGS. 4A-C. Comparison of batch fermentations for the parent LY180 and the plasmid-free, furfural-resistant strain XW129. […] For A (cell mass) and B (ethanol and furfural), fermentations were conducted in mineral salt medium AM1 (100 g/L xylose and 15 mM furfural). Control fermentations without furfural were also included. Fermentations (C) were also conducted using hemicellulose hydrolysate containing 36 g/L total sugar, supplemented with AM1 nutrients and 0.5 mM sodium metabisulfite. Data represent averages of at least 2 experiments with standard deviations.\n(§3) Ethanol fermentations with xylose were carried out as previously described (17, 22), with and without furfural. For succinate production from xylose, seed pre-cultures of strains were grown in sealed culture tubes containing AM1 medium (20 g/L xylose, 50 mM KHCO3 and 100 mM MOPS). After incubation for 16 h, pre-inocula were diluted into 500-ml fermentation vessels containing 300 ml AM1 media (100 g/L xylose, 1 mM betaine and 100 mM KHCO3) at an initial density of 6.6 mg dry cell weight. After 24 h growth, these seed cultures were used to provide starting inocula for batch fermentations (AM1 medium, 100 g/L xylose and 100 mM KHCO3). Fermentations were maintained at pH 7.0 by automatic addition of base containing additional CO2 (2.4 M potassium carbonate in 1.2 M potassium hydroxide) as previously described (27). Quantitative analyses of sugars, ethanol, furfural, and succinate were as previously described (17, 27, 38)."}, "XW129": {"system": "XW129", "assay": "Batch ethanol fermentation in AM1 medium with furfural", "format": "cell-based, Escherichia coli", "settings": "15 mM furfural, AM1 mineral salts medium, 100 g/L xylose", "method": "as §2, §3"}},
  "data": [
    {"smiles": "O=Cc1ccco1", "note": "[furfural]", "values": [
      {"measurement": "furfural tolerance", "setting": "XW136", "result": 17.5, "unit": "mM"},
      {"measurement": "MIC", "setting": "XW055", "result": 7.5, "unit": "mM"},
      {"measurement": "MIC", "setting": "XW120", "result": 15, "unit": "mM"},
      {"measurement": "growth and fermentation", "setting": "LY180", "result": "completely blocked"},
      {"measurement": "delay of growth", "setting": "XW129", "result": 24, "unit": "h"},
      {"measurement": "extension of time required to complete fermentation", "setting": "XW129", "result": 6, "unit": "h"}
    ]}
  ]
}
